Measured values from BindingDB's records for doi:10.1021/jm9708341 (University of Leipzig, 1998).

Target: T1, Neutrophil elastase (Homo sapiens, UniProt P08246)
T1 sequence (P08246 whole entry): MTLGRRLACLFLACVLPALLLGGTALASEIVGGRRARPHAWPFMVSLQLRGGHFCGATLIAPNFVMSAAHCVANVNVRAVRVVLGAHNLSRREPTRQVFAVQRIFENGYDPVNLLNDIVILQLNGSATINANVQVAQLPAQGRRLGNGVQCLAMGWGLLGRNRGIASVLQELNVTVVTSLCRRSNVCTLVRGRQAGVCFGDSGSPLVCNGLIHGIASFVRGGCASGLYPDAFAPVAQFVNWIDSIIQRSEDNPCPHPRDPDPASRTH
Assay: Steady state inhibition constant for Human Leukocyte Elastase inhibition
Conditions: for kon: read-out: kon (M-1-s-1)

| SMILES | koff | kon |
| --- | --- | --- |
| CSc1nc2sc3c(c2c(=O)o1)CCCC3 [2-Methylsulfanyl-5,6,7,8-tetrahydro-benzo[4,5]thieno[2,3-d][1,3]oxazin-4-one] | 0.00156 s⁻¹ | 272000 M⁻¹ s⁻¹ |
| Cc1sc2nc(NC(C)C)oc(=O)c2c1C [2-Isopropylamino-5,6-dimethyl-thieno[2,3-d][1,3]oxazin-4-one] | 8.5e-05 s⁻¹ | 1130 M⁻¹ s⁻¹ |
| COC(=O)CSc1nc2sc(C)c(C)c2c(=O)o1 [(5,6-Dimethyl-4-oxo-4H-thieno[2,3-d][1,3]oxazin-2-ylsulfanyl)-acetic acid methyl ester] | 0.000163 s⁻¹ | 685 M⁻¹ s⁻¹ |
